From patent US5225543A, “Receptors method for purification of G protein-linked” (priority 1991, dated 1993)
One block for each substance: values may come before it. Where no end group is shown, it is not given here. The star is where a group is joined. 125I = [125I]*

Columns and labels:
[1] = target: T1, SRIF receptor (GH4 C1 membranes) (Rattus norvegicus, UniProt P30680); assay: Binding of [^125 I] biotinyl-SRIF ligands to GH4 C1 membranes (CPM bound/mg); details: radioligand 0.77×10^6 cpm/ml
T1 construct: GH4 C1 rat pituitary tumor cells; endogenous in cells; host or cells: GH4 C1 rat pituitary tumor cells (isolated membranes)
Protocol: 4. Larger scale binding assays to obtain membrane pellets for studies on solubilization of receptor:ligand complex and for receptor purification are also carried out. These are identical to the standard assays except that: (a) Binding is carried out in polypropylene tubes in volumes from 1-250 ml, with the wash step being done in the same volume as initially used for binding, (b) Concentration of membrane protein is always 0.5 mg/ml, (c) For receptor purification, BSA concentration in the binding buffer is reduced to 0.25% and the wash step is done with binding buffer without BSA. This is to reduce BSA contamination of the purified receptor.
To compare the three biotinyl-SRIF analogs in terms of binding to streptavidin, the following experiment is done. [^125 I]Bio-SRIF analogs are bound to GH4 C1 membranes as described ("Methods: Receptor Binding Methods, 4"). All radioligands are at a concentration of 0.77×10^6 cpm/ml. For each radioligand, a control for non-specific binding is done in the presence of 1 uM cold S14. […] At the times shown, the SA beads are spun down and 100 ul samples of supernatant are counted. The cpm are compared to initial cpm in the sample and % binding to SA is calculated from this. […]

[2] = target: T1, SRIF receptor (GH4 C1 membranes); assay: Scatchard analysis of [^125 I]-labelled ligand binding to GH4 C1 membranes (FIG. 5); details: read-out: dissociation constant (KD)
Protocol: 1. Standard Binding Assays--Binding assays are done in a binding buffer containing 50 mM HEPES (pH 7.4), 0.5% BSA and 5 mM MgCl2. The standard assay for [^125 I]SRIF analog binding to GH4 CL membranes, done in 96 well microtiter plates (Dynatech Immulon II Removawell plates), is carried out as follows: 1. Radioligand is diluted in binding buffer+PMSF/Baci to the desired cpm per vol. of 50 μl and then 50 μl aliquots are added to the wells. For non-specific binding samples, 5 μl of 40 μM cold S14 is also added per well. 2. Binding is initiated by adding 150 μl per well of membrane diluted to the desired concentration (10-30 ug membrane protein/well) in binding buffer+PMSF/Baci. Plates are then covered with Linbro mylar plate sealers (Flow Labs) and placed on a Dynatech Microshaker II and binding is allowed to proceed at room temperature for 1-2 hours. Binding is stopped by centrifuging the plate for 15 minutes at 2,000×g. The supernatants are dumped off and membrane pellets washed once by addition of 200 μl of ice cold binding buffer, brief shaking and recentrifugation. Finally the individual wells are placed in 12×75 mm tubes and counted in an LKB Gammamaster counter (78% efficiency). Specific binding by this method is identical to that measured when free ligand is removed by rapid (3-5 seconds) filtration and washing on polyethyleneimine-coated glass fiber filters.
3. […]

[3] = system: streptavidin (SA-agarose); assay: Binding of [^125 I]-labelled biotinyl-SRIFs (solubilized R:L complex) to immobilized streptavidin (Table 3)
Protocol: 3. Adsorption of solubilized R:L complex to streptavidin. Immobilized streptavidin (streptavidin cross-linked to 6% beaded agarose, Pierce Chemical Co.; "SA-agarose") is washed in solubilization buffer and added to the solubilized membranes as 1/30 of the final volume. This mixture is incubated with constant stirring by end-over-end rotation for 4-5 hours at 4°-10° C. Then the mixture is applied to a column and the non-bound material is washed through. Binding of radioligand to SA-agarose is determined by comparing cpm in the 100,000×g supernatant with that in the column effluent after adsorption to SA-agarose. Finally, the column is washed with 12-15 column volumes of solubilization buffer+0.15% deoxycholate:lysolecithin+1/500 (vol/vol) 100×4pase.
To compare the three biotinyl-SRIF analogs in terms of binding to streptavidin, the following experiment is done. [^125 I]Bio-SRIF analogs are bound to GH4 C1 membranes as described ("Methods: Receptor Binding Methods, 4"). All radioligands are at a concentration of 0.77×10^6 cpm/ml. For each radioligand, a control for non-specific binding is done in the presence of 1 uM cold S14. CPM bound/mg membrane protein after the binding step are as follows: [^125 I]Bio-6C-S14=755,020 (total) and 43,361 (non-specific); [^125 I]Bio-12C=S14=633,134 (total) and 39,538 (nonspecific); [^125 I]Bio-S28=1,065,512 (total) and 35,049 (nonspecific). The membrane pellets are solubilized in solubilization buffer containing 0.15% deoxycholate:lysolecithin and 0.2 mM MgCl2 as described ("Methods: Membrane Solubilization"). […] One ml samples of solubilized membranes are incubated with 0.05 ml vols of streptavidin-agarose at 4°-10° C. on a tube rotator for the times shown. Non-specific binding samples are not done due to the low levels of non-specific binding. At the times shown, the SA beads are spun down and 100 ul samples of supernatant are counted. The cpm are compared to initial cpm in the sample and % binding to SA is calculated from this. Also, it should be noted that binding of cpm from the supernatant is considered to parallel the binding of R:L complex. Several observations confirm that this is a valid assumption.
CPM are determined for 100 ul samples of initial 100,000×g supernatant (containing soluble R:L complex) and supernatant after incubation with SA-agarose for times shown.

[4] = system: somatostatin receptor (GH4 C1 membranes); assay: Binding, CHAPS solubilization and recovery of SRIF receptor:[^125 I]Tyr11-S14 complex (FIG. 1, Table 1); set-up: species or system rat; details: for CPM recovered, B. Nonspecific: 10^-6 M cold S14; for CPM recovered, A. Total: without cold S14
Protocol: FIG. 1 illustrates separation of receptor-bound and free [^125 I]Tyr11-S14. Radioligand is bound to GH4 C1 membranes as described in "Materials and Methods". The binding incubations contain 2 mg membrane protein and 6×10^6 cpm of radioligand in 8 ml. A non-specific binding sample is identical except for the addition of 1 uM cold S14. Initial cpm bound were 1.43×10^6 (total) and 0.65×10^6 (non-specific). After the binding step, membranes are resuspended at 1 […] in the presence of 1% CHAPS detergent in a buffer containing 25 mM Tris (pH 8), 10% glycerol and 0.2 mM CaCl2 (solubilization buffer). A protease inhibitor cocktail ("100×4 pase" described in "Materials and Methods") is also added as 1% of final volume. Solubilization is allowed to proceed for 1 hour on ice, and then the mixture is centrifuged for 30 minutes at 100,000×g. CPM in the 100,000×g supernatant were 0.61×10^6 (total) and 0.29×10^6 (non-specific). Free [^125 I]Tyr11-S14 is added to the non-specific binding sample to give equal cpm in the two samples. Then 0.25 ml aliquots of each supernatant ([…]) are loaded onto 0.8×13 cm columns of Sephadex G-50. The columns are eluted at a flow rate of 0.7 ml/min with solubilization buffer + 1% BSA. 0.18 ml fractions are collected and counted for radioactivity.
0.18 ml samples are collected. […] The mixture is held on ice for 15 minutes.
[^125 I]Tyr11-S14 is bound to GH4 C1 membranes as described above ("Methods: Receptor Binding Methods, 4."), except that these binding assays contain 2 mg membrane protein in 8 ml (0.25 mg membrane protein/ml). Radioligand is […]. A non-specific binding sample is identical except for the addition of 1 uM cold S14. Initial cpm bound is 1.43×10^6 (total) and 0.65×10^6 (nonspecific). After the binding step, membranes are solubilized in solubilization buffer containing 0.2 mM CaCl2 and 1% CHAPS ("Methods: Membrane Solubilization"). CPM in the 100,000×g supernatants are 0.61×10^6 (total) and 0.29×10^6 (nonspecific). Free [^125 I]Tyr11-S14 is added to the nonspecific binding sample to give equal cpm in the two samples. Then 0.25 ml aliquots of each supernatant (75-80,000 cpm) are loaded onto 0.8×13 cm columns of Sephadex G-50. The columns are eluted as described in "Methods: Assay of Solubilized Receptors, 1." and the fractions counted for radioactivity.
A peak of high MW material eluting in the column void volume (peak I; 34% of total cpm) contain specifically bound radioactivity. […] Peak II in FIG. 1 represents free [^125 I]Tyr11-S14, and is the major peak in the nonspecific binding sample. In FIG. 1 it is important to note that just before applying samples to the columns, free [^125 I]Tyr11-S14 is added to the non-specific binding sample to equalize the cpm in the two samples. […] The GFB/PEI method is used in subsequent experiments.
0.25 ml samples containing solubilized R:L complex, from the preparation described in FIG. 1 are separated from free radioligand either by: (1) chromatography on Sephadex G-50 (see FIG. 1), (2) Precipitation with polyethyleneglycol+bovine gamma globulin with collection of the precipitates on GFB filters or (3) adsorption on polyethyleneimine-coated,GFB filters (for methods 2 and 3 see "Methods: Assay of Solubilized Receptors, 2 and 3"). Radioactivity recovered in peak I (Method 1) or on filters (Methods 2 and 3) is compared in the Table.

[5] = GFB/PEI filters, triplicate, SE 5%
[6] = PEG precipitation, triplicate, SE 5%

T1 sequence (P30680 whole entry): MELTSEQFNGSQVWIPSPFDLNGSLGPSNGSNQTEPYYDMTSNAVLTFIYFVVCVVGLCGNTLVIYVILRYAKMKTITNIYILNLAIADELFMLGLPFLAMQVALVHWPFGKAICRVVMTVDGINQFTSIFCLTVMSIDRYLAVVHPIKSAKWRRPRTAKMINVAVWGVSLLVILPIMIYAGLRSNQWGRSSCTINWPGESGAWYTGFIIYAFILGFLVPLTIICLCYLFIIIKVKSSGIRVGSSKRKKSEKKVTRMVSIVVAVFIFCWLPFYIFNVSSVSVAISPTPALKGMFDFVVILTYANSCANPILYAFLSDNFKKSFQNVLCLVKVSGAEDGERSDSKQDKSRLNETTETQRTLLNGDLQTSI

CPM bound/mg membrane protein, nonspecific ([1]; in presence of 1 uM cold S14): 35,049 CPM bound/mg membrane protein | CPM bound/mg membrane protein, total ([1]; total): 1,065,512 CPM bound/mg membrane protein | Kd [2]: 0.2 nM | binding of solubilized R:L complex to immobilized streptavidin vs Bio-6C-S14 and Bio-12C-S14 [3]: binds somewhat better | Initial CPM ([3]; 100 ul of initial 100,000×g supernatant): 92,534 CPM | % Binding of radioligand to SA-agarose, 1 hour ([3]; 1 hour): 66% | % Binding of radioligand to SA-agarose, 3 hours ([3]; 3 hours): 82% | Non-bound CPM, 1 hour ([3]; supernatant after 1 hour with SA-agarose): 31,645 CPM | Non-bound CPM, 3 hours ([3]; supernatant after 3 hours with SA-agarose): 17,098 CPM
Substance: biotinyl-NH(Leu8, D-Trp22, [^125 I]Tyr25)SRIF [[^125 I]Bio-S28]

Kd [2]: 0.1 nM | Initial cpm bound, nonspecific ([4]; 2 mg membrane protein in 8 ml, plus 1 uM cold S14): 0.65×10^6 cpm | Initial cpm bound, total ([4]; 2 mg membrane protein in 8 ml, total): 1.43×10^6 cpm | peak I (void volume) share of total cpm ([4]; 1% CHAPS, Sephadex G-50): 34 % of total cpm | specifically bound ligand recovered, of initial specifically bound cpm on intact membranes ([4]; 1% CHAPS, Sephadex G-50 peak I): 11% | CPM in 100,000×g supernatant, nonspecific ([4]; 1% CHAPS, plus 1 uM cold S14): 0.29×10^6 CPM | CPM in 100,000×g supernatant, total ([4]; 1% CHAPS, total): 0.61×10^6 CPM | Specifically bound ligand recovered (A-B) ([4]; GFB/PEI filters): 20,340 CPM | CPM recovered, B. Nonspecific [4, 5]: 7,193 CPM | CPM recovered, A. Total [4, 5]: 27,533 CPM | Specifically bound ligand recovered (A-B) ([4]; PEG precipitation): 17,272 CPM | CPM recovered, B. Nonspecific [4, 6]: 7,803 CPM | CPM recovered, A. Total [4, 6]: 23,075 CPM | Specifically bound ligand recovered (A-B) ([4]; Sephadex G-50): 16,840 CPM | CPM recovered, B. Nonspecific ([4]; Sephadex G-50): 9,104 CPM | CPM recovered, A. Total ([4]; Sephadex G-50): 23,944 CPM
Substance: [^125 I]Tyr11-S14: non-biotinylated radioligand, [^125 I]Tyr11-S14 (AGCKNFFWKTY(125I)TSC; ends and bridges not checked; UniProt P61278 103-116, looked up, variant F11Y)
